Data on 23 compounds can be found in patent US11548868B2, “Heterocyclic compounds, compositions comprising heterocyclic compound, and methods of use thereof” (JS INNOPHARM (SHANGHAI) LTD, priority 2017, dated 2023).

Assay [1] deals with T1, TDO2 in A172 cancer cells (Homo sapiens, UniProt P48775).
T1 construct: endogenous in cells; host or cells: A172 cancer cells
The assay can be described thus: TDO2 Cellular Assay (kynurenine production in A172 cancer cells). Format: cell-based. As to conditions: L-Trp 1 mM, 24 hours incubation, kynurenine at 490 nm. Here is the method:
A172 cancer cells (3×10^4 per well) in 85 μL DMEM medium containing 10% FBS were seeded in a 96-well plate and incubated at 95% humidity and 5% CO2 at 37° C. for overnight. On the next day, L-Trp solution (10 μL, 1 mM final concentration) and serial dilutions of the test compounds and DMEM medium resulting in a total final volume of 100 μL each well. The test compounds were dissolved in DMSO and successively diluted with pH7.5 butter (with final DMSO concentration of 0.25%) resulting in final concentrations of the test compounds ranging from 0 to 25 μM (0, 2.5, 7.5, 25, 75, 250, 750, 2500, 7500, & 25000 nM). After 24 hours of incubation, 70 uL of the supernatant per well was transferred to a new 96 well plate. 8 μL of trichloroacetic acid (6.1 N) was mixed into each well and incubated at 50° C. for 30 min to hydrolyze N-formylkynurenine to kynurenine. The reaction mixture was then centrifuged for 10 min at 2500 RPM to remove sediments. 50 μL of the supernatant per well was transferred to another 96 well plate and mixed with 50 μL of 2% (w/v) p-dimethylaminobenzaldehyde in acetic acid. The yellow color derived from kynurenine was measured at 490 nm using a microplate reader. Percent inhibition of the test compounds was determined by measuring the decrease in kynurenine as compared to the control of DMSO vehicle, which was calculated by formula of (WC−WT)/WC, where WC is the mean absorbance of the control well minus blank well; WT is the mean absorbance of the test well minus the blank well. Data was analyzed by GraphPad Prism 5 and the IC50 values were obtained by non-linear regression.
(§1) The IC50 values of for Compounds disclosed are listed in Table 2, A′: ≤0.5 μM; B′: >0.5 μM and ≤1 μM; C′: >1.0 μM and ≤5 uM; and D′: >5 μM.

Assay [2] addresses T2, IDO1 in Hela cancer cells (Homo sapiens, UniProt P14902).
T2 construct: endogenous in cells; host or cells: Hela cancer cells stimulated with human IFN-γ
Put plainly: IDO1 Cellular Assay (kynurenine production in IFN-γ stimulated Hela cancer cells). Format: cell-based. The conditions noted are these: human IFN-γ 50 ng/mL, 48 hours incubation, kynurenine at 490 nm. As to the method: Hela cancer cells (5×10^3 per well) with 85 μL DMEM medium containing 10% FBS were seeded in a 96-well plate and incubated at 95% humidity and 5% CO2 at 37° C. for 24 hours. human IFN-γ (10 μL, 50 ng/mL final concentration) and 5 μL serial dilutions of the test compounds were added into each well. The test compounds were dissolved in DMSO, and successively diluted with pH7.5 buffer (with final DMSO concentration of 0.25%) resulting in final concentrations of the test compounds ranging from 0 to 25 μM (0, 2.5, 7.5, 25, 75, 250, 750, 2500, 7500, & 25000 nM). After 48 hours of incubation, 70 uL of the supernatant per well was transferred to a new 96 well plate. Trichloroacetic acid (6.1 N, 8 μL) was mixed into each well and incubated at 50° C. for 30 min to hydrolyze N-formylkynurenine produced by IDO to kynurenine. The reaction mixture was then centrifuged for 10 min at 2500 RPM to remove sediments. 50 μL of the supernatant per well was transferred to another 96 well plate and mixed with 50 uL of 2% (w/v) p-dimethylaminobenzaldehyde in acetic acid. The yellow color derived from kynurenine was measured at 490 nm using a microplate reader. Percent inhibition of the test compounds was determined by measuring the decrease in kynurenine as compared to the control of DMSO vehicle, which was calculated by formula of (WC-WT)/WC, where WC is the mean absorbance of the control well minus blank well; WT is the mean absorbance of the test well minus the blank well. Data was analyzed by GraphPad Prism 5 and the IC50 values were obtained by non-linear regression.
as §1

pIC50: −log10 of the molar value.

T1 sequence (P48775 whole entry): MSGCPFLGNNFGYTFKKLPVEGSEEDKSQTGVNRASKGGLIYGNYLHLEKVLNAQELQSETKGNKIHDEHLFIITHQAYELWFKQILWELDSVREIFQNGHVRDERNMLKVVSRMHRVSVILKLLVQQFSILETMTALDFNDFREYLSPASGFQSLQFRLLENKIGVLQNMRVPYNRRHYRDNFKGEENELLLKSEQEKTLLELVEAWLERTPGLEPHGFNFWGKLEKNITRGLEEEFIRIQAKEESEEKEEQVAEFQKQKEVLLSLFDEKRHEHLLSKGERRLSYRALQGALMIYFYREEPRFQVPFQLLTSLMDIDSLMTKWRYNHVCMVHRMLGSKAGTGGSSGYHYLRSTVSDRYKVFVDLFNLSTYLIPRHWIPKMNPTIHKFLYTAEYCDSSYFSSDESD
T2 sequence (P14902 whole entry): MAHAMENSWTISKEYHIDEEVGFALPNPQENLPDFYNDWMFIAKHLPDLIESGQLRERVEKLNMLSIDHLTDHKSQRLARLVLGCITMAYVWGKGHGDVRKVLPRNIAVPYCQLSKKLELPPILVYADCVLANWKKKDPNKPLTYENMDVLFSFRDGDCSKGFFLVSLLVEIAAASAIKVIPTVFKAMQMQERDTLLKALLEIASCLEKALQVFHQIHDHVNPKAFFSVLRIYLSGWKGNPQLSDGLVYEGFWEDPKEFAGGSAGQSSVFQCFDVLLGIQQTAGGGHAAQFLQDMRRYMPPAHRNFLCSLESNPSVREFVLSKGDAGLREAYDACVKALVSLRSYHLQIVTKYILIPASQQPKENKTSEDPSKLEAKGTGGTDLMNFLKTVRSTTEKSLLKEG

The term pIC50 denotes the IC50 on a negative log10 scale, so that one unit is a factor of ten. A higher pIC50 goes with a low IC50. As for `O=C(N[C@H]1C[C@@H]2C[C@@](O)(c3cc(Cl)cc4[nH]ncc34)C[C@@H]2C1)c1cccc(Cl)c1` [Example 166, 3-chloro-N-((2r,3aR,5r,6aS)-5-(6-chloro-1H-indazol-4-yl)-5-hydroxyoctahydropentalen-2-yl)benzamide], the pIC50 in assay [1] was no less than 6.30; in assay [2], 6.00 to 6.30.

For the compound `O[C@@]1(c2cc(Cl)cc3cn[nH]c23)C[C@H]2CN(c3ccncc3)C[C@H]2C1` [Example 117, (3aR,5r,6aS)-5-(5-chloro-1H-indazol-7-yl)-2-(pyridin-4-yl)octahydrocyclopenta[c]pyrrol-5-ol], the pIC50 in assay [1] and in assay [2] was less than 5.30 in each case.

For the compound `CNS(=O)(=O)N[C@H]1[C@@H]2C[C@@](O)(c3cc(Cl)cc4[nH]ncc34)C[C@@H]21` [Example 9, N′-methyl-N-((1R,3r,5S,6r)-3-(6-chloro-1H-indazol-4-yl)-3-hydroxybicyclo[3.1.0]hexan-6-yl)sulfuric diamide], the pIC50 in assay [1] and in assay [2] was no less than 6.30 throughout.

As to `O=C(NC1CC1)N[C@H]1[C@@H]2C[C@@](O)(c3cc(Cl)cc4[nH]ncc34)C[C@@H]21` [Example 120, 1-((1R,3r,5S,6r)-3-(6-chloro-1H-indazol-4-yl)-3-hydroxybicyclo[3.1.0]hexan-6-yl)-3-cyclopropylurea], the pIC50 in assay [1] was no less than 6.30; in assay [2], less than 5.30.

Turning to `O=S(=O)(c1ccccc1)N1C[C@@H]2C[C@@](O)(c3cc(Cl)cc4cn[nH]c34)C[C@@H]2C1` [Example 102, (3aR,5r,6aS)-5-(5-chloro-1H-indazol-7-yl)-2-(phenylsulfonyl)octahydrocyclopenta[c]pyrrol-5-ol], the pIC50 in assay [1] and in assay [2] was less than 5.30 throughout.

Turning to `O=C(N[C@H]1[C@@H]2C[C@@](O)(c3cc(Cl)cc4[nH]ncc34)C[C@@H]21)C1CCOCC1` [Example 91, N-((1R,3r,5S,6r)-3-(6-chloro-1H-indazol-4-yl)-3-hydroxybicyclo[3.1.0]hexan-6-yl)tetrahydro-2H-pyran-4-carboxamide], the pIC50 in assay [1] was no less than 6.30.

Compound `CC1(C)[C@H]2CN(c3c(C(F)(F)F)ccn4cncc34)C[C@H]2CN1S(C)(=O)=O` (racemic) [Example 57, Racemic-8-((3aR,6aS)-4,4-dimethyl-5-(methylsulfonyl)hexahydropyrrolo[3,4-c]pyrrol-2(1H)-yl)-7-(trifluoromethyl)imidazo[1,5-a]pyridine] showed a pIC50 in assay [1] of less than 5.30.

On to `CCC(=O)N1C[C@@H]2C[C@@](O)(c3cc(Cl)cc4[nH]ncc34)C[C@@H]2C1` [Example 70, 1-((3aR,5r,6aS)-5-(6-chloro-1H-indazol-4-yl)-5-hydroxyhexahydrocyclopenta[c]pyrrol-2(1H)-yl)propan-1-one], for which the negative-log IC50 (pIC50) in assay [1] is no less than 6.30.

In assay [1], `CC(C)(C)OC(=O)N1C[C@@H]2C[C@@](O)(c3cc(Cl)cc4[nH]ncc34)C[C@@H]2C1` [Example 54, (3aR,5r,6aS)-tert-butyl 5-(6-chloro-1H-indazol-4-yl)-5-hydroxyhexahydrocyclopenta[c]pyrrole-2(1H)-carboxylate] had a pIC50 of no less than 6.30.

In assay [1], `CC1(C)C2CN(c3cc(Cl)cc4[nH]ncc34)CC2CN1S(=O)(=O)c1ccc(C#N)cc1` (stereo not shown) [Example 26, 4-(5-(6-chloro-1H-indazol-4-yl)-1,1-dimethylhexahydropyrrolo[3,4-c]pyrrol-2(1H)-ylsulfonyl)benzonitrile] showed a negative logarithm of the IC50 (pIC50) of 5.30 to 6.00.

For `CC(C)S(=O)(=O)N[C@H]1[C@@H]2C[C@@](O)(c3cc(Cl)cc4[nH]ncc34)C[C@@H]21` [Example 77, N-((1R,3r,5S,6r)-3-(6-chloro-1H-indazol-4-yl)-3-hydroxybicyclo[3.1.0]hexan-6-yl)propane-2-sulfonamide], in assay [1], the pIC50 was no less than 6.30.

In turn, `CC(C)C(=O)N1C[C@@H]2C[C@@](O)(c3cc(Cl)cc4[nH]ncc34)C[C@@H]2C1` [Example 65, 1-((3aR,5r,6aS)-5-(6-chloro-1H-indazol-4-yl)-5-hydroxyhexahydrocyclopenta[c]pyrrol-2(1H)-yl)-2-methylpropan-1-one] had a pIC50 in assay [1] of no less than 6.30.

Compound `O=S(=O)(N[C@H]1[C@@H]2C[C@@](O)(c3cc(Cl)cc4[nH]ncc34)C[C@@H]21)C1CCOCC1` [Example 94, N-((1R,3r,5S,6r)-3-(6-chloro-1H-indazol-4-yl)-3-hydroxybicyclo[3.1.0]hexan-6-yl)tetrahydro-2H-pyran-4-sulfonamide] showed a pIC50 in assay [1] of no less than 6.30.

The compound `O=S(=O)(N[C@H]1[C@@H]2C[C@@](O)(c3cc(Cl)cc4[nH]ncc34)C[C@@H]21)C1CCCC1` [Example 74, N-((1R,3r,5S,6r)-3-(6-chloro-1H-indazol-4-yl)-3-hydroxybicyclo[3.1.0]hexan-6-yl)cyclopentanesulfonamide] showed a pIC50 in assay [1] of no less than 6.30.

In the case of `O=C(N[C@H]1[C@@H]2C[C@@](O)(c3cc(Cl)cc4[nH]ncc34)C[C@@H]21)C1CC1` [Example 76, N-((1R,3r,5S,6r)-3-(6-chloro-1H-indazol-4-yl)-3-hydroxybicyclo[3.1.0]hexan-6-yl)cyclopropanecarboxamide], the negative-log IC50 (pIC50) in assay [1] is no less than 6.30.

Compound `COC(=O)N[C@H]1[C@@H]2C[C@@](O)(c3cc(Cl)cc4[nH]ncc34)C[C@@H]21` [Example 80, methyl ((1R,3r,5S,6r)-3-(6-chloro-1H-indazol-4-yl)-3-hydroxybicyclo[3.1.0]hexan-6-yl)carbamate] gave a pIC50 in assay [1] of no less than 6.30.

Turning to `O=S(=O)(C1CC1)N1C[C@@H]2C[C@@](O)(c3cc(Cl)cc4[nH]ncc34)C[C@@H]2C1` [Example 37, (3aR,5r,6aS)-5-(6-chloro-1H-indazol-4-yl)-2-(cyclopropylsulfonyl)octahydrocyclopenta[c]pyrrol-5-ol], in assay [1], the pIC50 is no less than 6.30.

In assay [1], `O=C([C@H]1CC[C@H](O)CC1)N1C[C@@H]2C[C@@](O)(c3cc(Cl)cc4[nH]ncc34)C[C@@H]2C1` [Example 66, ((3aR,5R,6aS)-5-(6-chloro-1H-indazol-4-yl)-5-hydroxyhexahydrocyclopenta[c]pyrrol-2(1H)-yl)((1r,4R)-4-hydroxycyclohexyl)methanone] showed a negative logarithm of the IC50 (pIC50) of no less than 6.30.

In turn, `CC(C)(C)C(=O)N[C@H]1[C@@H]2C[C@@](O)(c3cc(Cl)cc4[nH]ncc34)C[C@@H]21` [Example 90, N-((1R,3r,5S,6r)-3-(6-chloro-1H-indazol-4-yl)-3-hydroxybicyclo[3.1.0]hexan-6-yl)pivalamide] showed a pIC50 in assay [1] of no less than 6.30.

Consider `O=S(=O)(N[C@H]1[C@@H]2C[C@@](O)(c3cc(Cl)cc4[nH]ncc34)C[C@@H]21)C1CCCCC1` [Example 78, N-((1R,3r,5S,6r)-3-(6-chloro-1H-indazol-4-yl)-3-hydroxybicyclo[3.1.0]hexan-6-yl)cyclohexanesulfonamide], for which the pIC50 in assay [1] is no less than 6.30.

With `O=C(C1CCCC1)N1C[C@@H]2C[C@@](O)(c3cc(Cl)cc4[nH]ncc34)C[C@@H]2C1` [Example 59, ((3aR,5r,6aS)-5-(6-chloro-1H-indazol-4-yl)-5-hydroxyhexahydrocyclopenta[c]pyrrol-2(1H)-yl)(cyclopentyl)methanone], the pIC50 in assay [1] is no less than 6.30.

Compound `CC(=O)N1C[C@H]2C[C@@H](c3cc(C(F)(F)F)cn4cncc34)C[C@H]2C1` [Example 4, 1-((3aR,5r,6aS)-5-(6-(trifluoromethyl)imidazo[1,5-a]pyridin-8-yl)hexahydrocyclopenta[c]pyrrol-2(1H)-yl)ethanone] gave a pIC50 in assay [1] of less than 5.30.

Consider `O=C(CC1CC1)N1C[C@@H]2C[C@@](O)(c3cc(Cl)cc4[nH]ncc34)C[C@@H]2C1` [Example 69, 1-((3aR,5r,6aS)-5-(6-chloro-1H-indazol-4-yl)-5-hydroxyhexahydrocyclopenta[c]pyrrol-2(1H)-yl)-2-cyclopropylethanone], for which the pIC50 in assay [1] was no less than 6.30.
